Experiments:
[1] = Beta glucan gel mediated oral delivery of nutraceuticals (absorption, pharmacokinetics)
Text: Beta-glucan compositions can be used to delivery other nutrients or therapeutic molecule via oral delivery.

[2] = tested on: high fat diet induced rat model; test: Oral delivery of anti-leptin antibody or leptin protein in high fat diet induced rat model; assay type: in vivo
Experimental: The inventors have developed an oral antibody or protein delivery platform and investigated feasibility using an anti-leptin antibody. […] The oral delivery vehicle facilitated enhancement of intestinal penetration of the antibody as well as protect the antibody from being damaged within the stomach in presence of acidic gastric juice. […] An oral dose of 5-10 μg leptin protein resulted 10-20% body weight reduction compared to the untreated high fat diet rat. […] Treated groups show less cholesterol contents in their blood which is within the normal range in opposed to the untreated animal that are observed with high cholesterol content.

[3] = tested on: high fat diet rat; test: Rat animal model, high fat diet with CAGE-Leptin or BG-leptin treatment (body weight, food consumption); assay type: in vivo
Experimental: Materials and Methods. Rat Animal Model. Rats are fed normal diet for 5 weeks, both male and female, body weight and food consumption is measured. Animals are fed a high fat diet for 5 weeks, body weight and food consumption is measured. Animals are fed high fat diet with CAGE-Leptin treatment for 5 weeks, body weight and food consumption is measured. Animals are fed high fat diet with BG-leptin treatment for 5 weeks, body weight and food consumption is measured.
Four groups of male were getting high fat diet for 2 weeks and then we start administer with cage, cage-leptin ab and leptin ab treatments (FIG. 3).

With `O=C(O)CCCCC1CCSS1` (racemic) [DL-thioctic acid] the enhancement of pharmacokinetics ([1]; Beta glucan mediated oral delivery, compared with free oral delivery, thioctic acid tested in rat) was 10-20 folds.
In the case of `CC/C=C\C/C=C\C/C=C\C/C=C\C/C=C\C/C=C\CCC(=O)O` [Docosahexaenoic acid, docosahexaenoic acid], the enhancement of pharmacokinetics ([1]; rat, in vivo, po) is reported as 10 folds.
In the case of `O=S(=O)([O-])[O-].[Fe+2]` [iron sulfate], the “constipation problem associated with oral delivery” value ([1]; enhanced absorption by beta glucan) is reported as “mitigation of constipation problem” and the “absorption enhanced by Beta glucan” value ([1]; with Beta glucan, given orally) is reported as 60%.
For “leptin protein: Leptin protein (GenBank NP-000221), protein hormone of approx. 16 kDa formed by 146 amino acids”, the “body weight reduction compared to untreated high fat diet rat” value ([2]; oral dose of 5-10 μg) was 10-20%, the “production of anti leptin antibody” value ([2]; oral leptin protein) was “results in production anti leptin antibody” and the “fat content in body” value ([2]; treated high fat diet rat) was “significantly less fat content”. For the same compound, the “food consumption, male rat” value ([3]; male rats on high fat diet, versus high fat and regular diet control groups, FIG. 4 and FIG. 5) was “lower amount of food” and the “body weight gain, male rat” value ([3]; male rats, FIG. 2) was “lower than regular and high fat diet male control group”.
With vitamin B12 the enhancement of pharmacokinetics ([1]; rat, in vivo, po) was 15-20 folds.

From patent US20230024537A1, “Oral Delivery Compositions for Obesity Management” (BOARD OF REGENTS, THE UNIVERSITY OF TEXAS SYSTEM, priority 2021, published 2023)
